Laboratory results published in US20110150873A1, “ANTI-INFLAMMATORY COMPOSITIONS AND COMBINATIONS” (CAMBRIDGE ENTERPRISE LIMITED, priority 2007, published 2011).
Entries after “also recorded” stand apart in the source; their conditions may differ.

Key:
[1] = tested on: serum growth hormone (GH); experiment: ovalbumin-sensitised rat model of asthma: serum growth hormone ELISA (side-effect measure); assay type: in vivo, Brown Norway rats
Protocol: (§1) Briefly, adult Brown Norway rats (200-300 g body weight; n=10 per group) are sensitised by a single interperitoneal injection of 0.1 mg Ovalbumin on day 0. Each rat then receives an intratracheal challenge with a solution of 1% ovalbumin (w/v) on day 8, and with 2% ovalbumin (w/v) on days 15, 18 and 21. The animals are then sacrificed 3 hours after the final challenge on day 21. Note that ovalbumin (Sigma; purest available grade) can be made endotoxin-free by passage over EndoTrap Red columns (purchased from Cambrex; used in accordance with the manufacturer's instructions), and the endotoxin level confirmed as <5 EU/mg protein using the LAL assay (QCL-1000; Cambrex; performed in accordance with the manufacturer's instructions; 1 mg of standard endotoxin contains ˜900,000 EU/mg). This ensures that the lung inflammation response results from the allergic response to the ovalbumin protein, rather than from unintended LPS stimulation which occurs even with the highest purity grade commercial ovalbumin preparations, and therefore ensures the model more closely represents the underlying molecular pathology of human asthma.
One group of mice (acting as a baseline control) receives no ovalbumin challenges, but are otherwise treated identically. A second group (positive control) receives the challenges but no drug treatment. Further groups are treated identically, but receive daily dosage with: (a) (S)-3-(2′,2′-dimethylpropanoylamino)-tetrahydropyridin-2-one (B′) at a dose of either 0.3 mg/kg or 0.03 mg/kg via oral gavage from day 8 until day 21, with dosage being given 1 hr prior to any subsequent challenge with ovalbumin made on the same day. […]
Serum is also prepared from a terminal bleed, and levels of GH are measured using a commercially available ELISA (Diagnostic Systems Laboratories, Inc; DSLabs) in accordance with the manufacturer's instructions.

LPS-induced serum TNF-α = experiment: sub-lethal LPS-induced endotoxemia assay; assay type: in vivo, adult female CD-1 mice; details: for % Inhibition of LPS-induced serum TNF-α, Mean: oral route, six mice
From the text: In this assay, mice are given a non-specific pro-inflammatory challenge using bacterial endotoxin (LPS), and the extent of the systemic inflammatory response (measured by serum levels of the central pro-inflammatory cytokine TNF-α, which is essentially absent from the blood under normal conditions, but is rapidly elevated in response to a wide range of inflammatory stimuli). We have selected this model, even though it is not, itself, a particularly close model of any human inflammatory disease condition, because TNF-α is known to be important in very many diseases (including rheumatoid arthritis, autoimmune disorders, Crohn's Disease, atherosclerosis, asthma and many more). Consequently, agents which suppress TNF-α production are already used clinically (e.g. etanercept (Enbrel™) and other anti-TNF-α antibody products, such as infliximab (Remicade™) and adalimumab (Humira™)) to treat a wide range of such diseases.
Mice (adult female CD-1 mice in groups of 6) were pretreated with various doses of each compound, either by the subcutaneous route 30 mins prior to LPS challenge, or by the oral route (via gavage) 60 mins prior to LPS. The mice were then challenged with an intraperitoneal injection of 750 μg of bacterial LPS and sacrificed 2 hours later. Serum was prepared from a terminal bleed by cardiac puncture, and the concentration of TNF-α determined by ELISA (R&D Systems). In each experiment, a group of 6 mice receive no LPS to act as a negative control, and a second group receive only LPS (with no candidate inhibitor). The level of TNF-α in serum from these animals which received LPS without drug pre-treatment is arbitrarily set to 100% (and is typically of the order of 6,000 pg/ml, compared with levels of <10 pg/ml among the negative control group, which received no LPS).

[2] = tested on: Th1/Th2 polarisation axis; experiment: ovalbumin-sensitised rat model of asthma: splenocyte Th1/Th2 ratio by flow cytometry; assay type: in vivo, Brown Norway rats; details: low dose B′ (0.03 mg/kg)
Protocol: as §1, with “asthma. […]” for “asthma.”
The spleen is also removed from each mouse and placed in RPMI+10% FCS+antibiotics. […] The resulting cell suspensions are then centrifuged (328 g; 5 mins) and washed in RPMI+10% FCS+antibiotics, before being resuspended in fresh media and counted using a haemocytometer. […]

[3] = tested on: leukocyte recruitment into the lung; experiment: ovalbumin-sensitised rat model of asthma: total BAL leukocyte count; assay type: in vivo, Brown Norway rats; details: low dose alone: 0.03 mg/kg B′ or 0.01 mg/kg DMX, daily oral
Protocol: as §1, with “This ensures that the lung inflammation response results from the allergic response to the ovalbumin protein, rather than from unintended LPS stimulation which occurs even with the highest purity grade commercial ovalbumin preparations, and therefore ensures the model more closely represents the underlying molecular pathology of human asthma.” left out
On sacrifice, total lung leukocyate recruitment is assessed by performing a broncheoalveolar lavage (BAL) using 4 lots of 3 ml sterile phosphate-buffered saline introduced through a tracheal cannula. For each animal, the BAL washes are combined, and the total cell population counted (using a haemocytometer).

In the case of `C[C@@H]1C[C@H]2[C@@H]3CCC4=CC(=O)C=C[C@]4(C)[C@@]3(F)[C@@H](O)C[C@]2(C)[C@@]1(O)C(=O)CO` [DMX, Dexamethasone, reference compound], the “suppression of serum GH levels” value ([1]; high dose DMX (1 mg/kg)) is reported as no more than 80%, the “suppression of serum GH levels” value ([1]; low dose DMX (0.01 mg/kg)) is reported as “approximately 10%” and the “% Inhibition of LPS-induced serum TNF-α, Mean” value (“% Inhibition” below) (LPS-induced serum TNF-α; Experiment 1, DMX 3 × 10^−7 mg) is reported as 19%. For the same molecule, the “% Inhibition” value (LPS-induced serum TNF-α; Experiment 2, DMX 3 × 10^−7 mg) was 37%.
`CC(C)(C)C(=O)N[C@H]1CCCNC1=O` [B′, (S)-3-(2′,2′-dimethylpropanoylamino)-tetrahydropyridin-2-one] was tested, and the “significant suppression of serum GH levels” value ([1]; B′ alone) was “not”, the “re-balancing of the Th1/Th2 axis” value [2] was “statistically significant Th1 shift” and the “effect on leukocyte accumulation in the lung” value [3] was “ineffective; also recorded: neither compound, when administered alone, has a statistically significant effect”.
With (S)-3-(adamantylamino)-caprolactam [B] the “% Inhibition” value (LPS-induced serum TNF-α; Experiment 1, B 3 × 10^−6 mg) was 34%, the “% Inhibition” value (LPS-induced serum TNF-α; Experiment 1) was 15% and the “% Inhibition” value (LPS-induced serum TNF-α; Experiment 2, B 3 × 10^−6 mg) was 54%. The “% Inhibition” value (LPS-induced serum TNF-α; Experiment 2) was 34% and the “anti-inflammatory effect on the TNF-α response” value (LPS-induced serum TNF-α; administered separately: 0.3 μg per mouse DMX or 0.1 μg/mouse B) was “minor anti-inflammatory effect which was not statistically significant in every experiment”.
